Target: T1, renin (Homo sapiens, UniProt P00797)
T1 construct: This test measures the formation of angiotensin I in human plasma; from tissue; host or cells: human plasma
T1 sequence (P00797 67-406): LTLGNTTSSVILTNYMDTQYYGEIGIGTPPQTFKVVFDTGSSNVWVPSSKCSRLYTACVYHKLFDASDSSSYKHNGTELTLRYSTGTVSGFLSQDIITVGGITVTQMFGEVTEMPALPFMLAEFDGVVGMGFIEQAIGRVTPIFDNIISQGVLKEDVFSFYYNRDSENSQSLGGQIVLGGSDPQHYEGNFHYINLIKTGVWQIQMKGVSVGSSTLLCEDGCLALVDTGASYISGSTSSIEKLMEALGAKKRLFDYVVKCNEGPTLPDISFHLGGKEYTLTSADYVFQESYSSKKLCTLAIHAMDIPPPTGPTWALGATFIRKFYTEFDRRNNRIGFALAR
Experiment: in vitro test of Nussberger et al.: formation of angiotensin I in human plasma (radioimmunoassay)
Type: biochemical
Settings: inhibition of formation of angiotensin I in human plasma
Experimental: The effect of renin inhibitors is detected inter alia experimentally by means of in vitro tests where the reduction in the formation of angiotensin I is measured in various systems (human plasma, purified human renin together with synthetic or natural renin substrate). The following in vitro test of Nussberger et al. (1987) J. Cardiovascular Pharmacol., Vol. 9, pp. 39-44, is used inter alia. This test measures the formation of angiotensin I in human plasma. The amount of angiotensin I formed is determined in a subsequent radioimmunoassay. The effect of inhibitors on the formation of angiotensin I is tested in this system by adding various concentrations of these substances. The IC50 is defined as the concentration of the particular inhibitor which reduces the formation of angiotensin I by 50%. The compounds of the present invention show inhibitory effects in the in vitro systems at minimal concentrations of about 10^−6 to about 10^−10 mol/I.

SMILES | IC50 [µM]
COCCCN1CCOc2ccc(CO[C@H]3CNCC[C@]3(O)c3ccc(COCCOC)cc3)cc21 [Example 361, (3S,4S)-4-[4-(2-Methoxy-ethoxymethyl)-phenyl]-3-[4-(3-methoxy-propyl)-3,4-dihydro-2H-benzo[1,4]oxazin-6-ylmethoxy]-piperidin-4-ol] | 0.0404
COCCCN1CCOc2ccc(CO[C@H]3CNCC[C@]3(O)c3ccc(COC[C@@H](C)Cn4cnnn4)cc3)cc21 [Example 371, (3S,4S)-3-[4-(3-Methoxy-propyl)-3,4-dihydro-2H-benzo[1,4]oxazin-6-ylmethoxy]-4-[4-((S)-2-methyl-3-tetrazol-1-yl-propoxymethyl)-phenyl]-piperidin-4-ol] | 0.123
CCO[C@H](C)COCc1ccc([C@@]2(O)CCNC[C@@H]2OCc2ccc3c(c2)N(CCCOC)CCO3)c(OCCOC)c1 [Example 375, (3S,4S)-4-[4-((R)-2-Ethoxy-propoxymethyl)-2-(2-methoxy-ethoxy)-phenyl]-3-[4-(3-methoxy-propyl)-3,4-dihydro-2H-benzo[1.4]oxazin-6-ylmethoxy]-piperidin-4-ol] | 0.0843
CCO[C@H](C)COCc1ccc([C@@]2(O)CCNC[C@@H]2OCc2ccc3c(c2)N(CCCOC)CCO3)c(CCOC)c1 [Example 378, (3S,4S)-4-[4-((R)-2-Ethoxy-propoxymethyl)-2-(2-methoxy-ethyl)-phenyl]-3-[4-(3-methoxy-propyl)-3,4-dihydro-2H-benzo[1,4]oxazin-6-ylmethoxy]-piperidin-4-ol] | 0.0096
